Data on one compound can be found in publication PMC5762309 (Oncotarget, 2017).

Holding throughout (format): cell-based
Holding throughout (details): Mus musculus, 72 hours, CellTiter-Glo

The subject of one assay is BaF3. The assay is described as follows: Anti-proliferation assay, parental BaF3 cells.
Another assay concerns BaF3-tel-KIT-A829P. The assay is described as follows: Anti-proliferation assay, transformed BaF3 cells. From the text:
(§1) Retroviral constructs for BaF3-KIT mutants were made based on the pMSCVpuro (Clontech) backbone. For TEL-KIT vector, the first 1 kb of human TEL gene with an artificial myristoylation sequence ([…]) was cloned into the pMSCVpuro retroviral vector, followed by a 3xFLAG tag sequence. Then, the kinase domain coding sequence of KIT was inserted in-frame between TEL and 3xFLAG sequences. For full-length expression vectors, the coding sequences of KIT variants were directly cloned in pMSCVpuro vector with a 3xFLAG tag at the C-terminal end. All mutagenesis was performed using the QuikChange Site-Directed Mutagenesis Kit (Stratagene) following the manufacturer’s instructions. Retrovirus was packaged in HEK293T cells by transfecting KIT-containing MSCV vectors together with two helper plasmids. Virus supernatants were harvested 48 h after transfection and filtered before infection. Then BaF3 cells were infected with harvested virus supernatants using spinoculation protocol, and stable cell lines were obtained by puromycin selection for 48 h. The IL-3 concentrations in the culture medium were gradually withdrawn until cells were able to grow in the absence of IL-3.
(§2) Cells were grown in 96-well culture plates (2500/well). The compounds of various concentrations were added into the plates. Cell proliferation was determined after treatment with compounds for 72 hours. Cell viability was measured using the CellTiter–Glo assay (Promega, USA), according to the manufacturer’s instructions, and luminescence was measured in a multi-label reader (Envision, PerkinElmer, USA). Data were normalized to control groups (DMSO) and represented by the mean of three independent measurements with standard error <20%. GI50 values were calculated using Prism 5.0 (GraphPad Software, San Diego, CA).

The next assay deals with BaF3-tel-KIT-D816V. The assay is described as follows: Anti-proliferation assay, transformed BaF3 cells.
Description: as §1, §2

A further assay deals with BaF3-tel-KIT-L576P. The assay is described as follows: Anti-proliferation assay, transformed BaF3 cells.
Description: as §1, §2

The test system of a further assay is BaF3-tel-KIT-N822K. Put plainly: Anti-proliferation assay, transformed BaF3 cells.
Description: as §1, §2

A further assay deals with BaF3-tel-KIT-T670I-V559D. The assay is described as follows: Anti-proliferation assay, transformed BaF3 cells.
Description: as §1, §2

The test system of another assay is BaF3-tel-KIT-T670I. Put plainly: Anti-proliferation assay, transformed BaF3 cells.
Description: as §1, §2

For another assay, the system named is BaF3-tel-KIT-V559D-V654A. The assay is described as follows: Anti-proliferation assay, transformed BaF3 cells.
Description: as §1, §2

Another assay concerns BaF3-tel-KIT-V559D. Put plainly: Anti-proliferation assay, transformed BaF3 cells.
Description: as §1, §2

For another assay, the system named is BaF3-tel-KIT-V654A. The assay is described as follows: Anti-proliferation assay, transformed BaF3 cells.
Description: as §1, §2

The next assay deals with BaF3-tel-KIT. Put plainly: Anti-proliferation assay, transformed BaF3 cells.
Description: as §1, §2

On to `CCN(CC)CCNC(=O)c1c(C)[nH]c(/C=C2\C(=O)Nc3ccc(F)cc32)c1C` [Sunitinib, reference compound], for which the GI50 amounted to 1300 nM with BaF3; 130 nM with BaF3-tel-KIT-A829P; 420 nM in the assay on BaF3-tel-KIT-D816V; 3 nM with BaF3-tel-KIT-L576P; 120 nM in the assay on BaF3-tel-KIT-N822K; 7 nM in the assay on BaF3-tel-KIT-T670I-V559D. The 50% growth inhibitory concentration (GI50) with BaF3-tel-KIT-T670I was 1 nM; in the assay on BaF3-tel-KIT-V559D-V654A, 6 nM; with BaF3-tel-KIT-V559D, below 0.3 nM; in the assay on BaF3-tel-KIT-V654A, 2 nM; with BaF3-tel-KIT, 60 nM.

By GI50 is commonly meant the concentration that inhibits growth by half.
